According to ChEMBL document CHEMBL3885861, “Open TG-GATES”:

Species on record: Rattus norvegicus
Experiment: Open TG-GATES - Regimen: Daily Repeat
Assay type: toxicity, organism-based, Sprague-Dawley
Set-up: regimen Daily Repeat, gender Male, age 6 weeks
Settings: in vivo, po, 300 mg/kg, route gavage, dose level High; for APTT / Bas / Eos / Fbg / Hb / Ht / Lym / MCH / MCHC / MCV / Mono / Neu / PT / Plat / RBC / Ret / WBC: tissue Blood; for KIDNEY_L / KIDNEY_R / KIDNEY_TOTAL: tissue Kidney; for LIVER: tissue Liver; for A/G / ALP / ALT / AST / BUN / CRE / Ca / Cl / DBIL / GLC / IP / K / LDH / Na / PL / RALB / TBIL / TC / TG / TP / gamma-GTP: tissue Plasma

## CCOC(=O)C(C)(C)Oc1ccc(Cl)cc1 [CLOFIBRATE]
72 h, time 3 day
  TERMINAL_BW: 242 g
  APTT: 20.5 s
  Bas: 0%
  Eos: 1%
  Fbg: 199.2 mg/dL
  Hb: 13.2 g/dL
  Ht: 37.7%
  Lym: 73.8%
  MCH: 21 pg
  MCHC: 34.9%
  MCV: 60.3 fL
  Mono: 3.2%
  Neu: 21.8%
  PT: 12.3 s
  Plat: 125.3 x10_4/uL
  RBC: 625.4 x10_4/ul
  Ret: 3.9%
  WBC: 91.3 x10_2/uL
  KIDNEY_L: 1.1 g
  KIDNEY_R: 1.1 g
  KIDNEY_TOTAL: 2.2 g
  LIVER: 14.9 g
  A/G: 1.9
  ALP: 928.8 IU/L
  ALT: 42 IU/L
  AST: 70.2 IU/L
  BUN: 14.2 mg/dL
  CRE: 0.4 mg/dL
  Ca: 10.6 mg/dL
  Cl: 101.8 meq/L
  DBIL: 0.06 mg/dL
  GLC: 200.4 mg/dL
  IP: 5.9 mg/dL
  K: 3.9 meq/L
  LDH: 220.2 IU/L
  Na: 140.6 meq/L
  PL: 102.2 mg/dL
  RALB: 3.5 g/dL
  TBIL: 0.1 mg/dL
  TC: 43.6 mg/dL
  TG: 46.6 mg/dL
  TP: 5.3 g/dL
  gamma-GTP: 0.8 IU/L
[…], time 7 day
  TERMINAL_BW: 267.7 g
  APTT: 21.4 s
  Bas: 0%
  Eos: 0.6%
  Fbg: 212.8 mg/dL
  Hb: 13.3 g/dL
  Ht: 38.9%
  Lym: 81.4%
  MCH: 20.9 pg
  MCHC: 34.3%
  MCV: 61.1 fL
  Mono: 3.2%
  Neu: 14.4%
  PT: 12.3 s
  Plat: 132.7 x10_4/uL
  RBC: 639.6 x10_4/ul
  Ret: 5.1%
  WBC: 129.1 x10_2/uL
  KIDNEY_L: 1.1 g
  KIDNEY_R: 1.2 g
  KIDNEY_TOTAL: 2.3 g
  LIVER: 18 g
  A/G: 2.1
  ALP: 1006.8 IU/L
  ALT: 31.4 IU/L
  AST: 62.8 IU/L
  BUN: 17.2 mg/dL
  CRE: 0.4 mg/dL
  Ca: 10.7 mg/dL
  Cl: 102 meq/L
  DBIL: 0.058 mg/dL
  GLC: 214.2 mg/dL
  IP: 7.4 mg/dL
  K: 3.5 meq/L
  LDH: 285 IU/L
  Na: 141.2 meq/L
  PL: 92.2 mg/dL
  RALB: 4 g/dL
  TBIL: 0.1 mg/dL
  TC: 37.6 mg/dL
  TG: 44.2 mg/dL
  TP: 5.9 g/dL
  gamma-GTP: 1 IU/L
[…], time 14 day
  TERMINAL_BW: 303.4 g
  APTT: 21.9 s
  Bas: 0%
  Eos: 0.6%
  Fbg: 187.4 mg/dL
  Hb: 13.6 g/dL
  Ht: 39.6%
  Lym: 78.8%
  MCH: 19.9 pg
  MCHC: 34.4%
  MCV: 57.8 fL
  Mono: 3.4%
  Neu: 16.8%
  PT: 12.5 s
  Plat: 115.9 x10_4/uL
  RBC: 684.8 x10_4/ul
  Ret: 3.9%
  WBC: 125.1 x10_2/uL
  KIDNEY_L: 1.3 g
  KIDNEY_R: 1.3 g
  KIDNEY_TOTAL: 2.6 g
  LIVER: 19.3 g
  A/G: 2.2
  ALP: 750.6 IU/L
  ALT: 41.8 IU/L
  AST: 59.6 IU/L
  BUN: 17.6 mg/dL
  CRE: 0.4 mg/dL
  Ca: 10.5 mg/dL
  Cl: 101.4 meq/L
  DBIL: 0.062 mg/dL
  GLC: 228.2 mg/dL
  IP: 6.1 mg/dL
  K: 3.8 meq/L
  LDH: 172 IU/L
  Na: 140.4 meq/L
  PL: 113.2 mg/dL
  RALB: 4 g/dL
  TBIL: 0.1 mg/dL
  TC: 44 mg/dL
  TG: 46.4 mg/dL
  TP: 5.9 g/dL
  gamma-GTP: 0.8 IU/L
[…], time 28 day
  TERMINAL_BW: 368.7 g
  APTT: 22 s
  Bas: 0%
  Eos: 1%
  Fbg: 187.6 mg/dL
  Hb: 14.6 g/dL
  Ht: 41.5%
  Lym: 80.2%
  MCH: 19.1 pg
  MCHC: 35.1%
  MCV: 54.4 fL
  Mono: 3.4%
  Neu: 15.2%
  PT: 12.3 s
  Plat: 109.1 x10_4/uL
  RBC: 762.4 x10_4/ul
  Ret: 2%
  WBC: 121.5 x10_2/uL
  KIDNEY_L: 1.5 g
  KIDNEY_R: 1.6 g
  KIDNEY_TOTAL: 3.1 g
  LIVER: 21.8 g
  A/G: 1.9
  ALP: 787 IU/L
  ALT: 43.4 IU/L
  AST: 70.8 IU/L
  BUN: 15.4 mg/dL
  CRE: 0.4 mg/dL
  Ca: 10.2 mg/dL
  Cl: 101.8 meq/L
  DBIL: 0.068 mg/dL
  GLC: 190 mg/dL
  IP: 5.1 mg/dL
  K: 3.6 meq/L
  LDH: 208.6 IU/L
  Na: 140.4 meq/L
  PL: 120.6 mg/dL
  RALB: 4 g/dL
  TBIL: 0.1 mg/dL
  TC: 46 mg/dL
  TG: 47.6 mg/dL
  TP: 6.1 g/dL
  gamma-GTP: 0.6 IU/L
